The text below walks through data of US20240122180A1, “FUNGICIDAL HALOMETHYL KETONES AND HYDRATES AND THEIR MIXTURES” (FMC Corporation, priority 2020, published 2024).

As a reminder, the pest or weed control is the degree to which the test organism was suppressed or injured, in per cent. Higher therefore signals strong suppression.

The subject of assay [1] is Phakopsora pachyrhizi (the causal agent of Asian soybean rust). Put plainly: Test A: preventive spray on soybean seedlings, visual disease rating (100 = 100% control; * 50 ppm, ** 10 ppm, *** 250 ppm). The format is in vivo. Particulars: 100 = 100% disease control. From the text:
(§1) General protocol for preparing test suspensions for Tests A-E: the test compounds were first dissolved in acetone in an amount equal to 3% of the final volume and then suspended at the desired concentration (in ppm) in acetone and purified water (50/50 mix by volume) containing 250 ppm of the surfactant […] (polyhydric alcohol esters). The resulting test suspensions were then used in Tests A-E.
The test solution was sprayed to the point of run-off on soybean seedlings. The following day the seedlings were inoculated with a spore suspension of Phakopsora pachyrhizi (the causal agent of Asian soybean rust) and incubated in a saturated atmosphere at 22° C. for 24 h, and then moved to a growth chamber at 22° C. for 8 days, after which time visual disease ratings were made.
(§2) Results for Tests A-E are given in Table A. In the Table, a rating of 100 indicates 100% disease control and a rating of 0 indicates no disease control (relative to the controls). An asterisk “*” or a double asterisk “**” or a triple asterisk “***” next to the rating value indicates a 50 ppm, 10 ppm and 250 ppm test suspension was used, respectively. A dash (-) indicates the compound was not tested.

Assay [2] concerns Puccinia recondita f. sp. tritici (the causal agent of wheat leaf rust). The assay is described as follows: Test B: preventive spray on wheat seedlings, disease rating (100 = 100% control; * 50 ppm, ** 10 ppm, *** 250 ppm). The format is in vivo. Particulars: 100 = 100% disease control.
Source text: as §1
The test solution was sprayed to the point of run-off on wheat seedlings. The following day the seedlings were inoculated with a spore suspension of Puccinia recondita f. sp. tritici (the causal agent of wheat leaf rust) and incubated in a saturated atmosphere at 20° C. for 24 h, and then moved to a growth chamber at 20° C. for 6 days, after which time disease ratings were made.
as §2

[3] abbreviates: 10 ppm test suspension, 0 = no control.
Where [4] appears, read: 50 ppm test suspension, 0 = no control.
Setting [5] is: 10 ppm test suspension, soybean seedlings.
[6] abbreviates: 10 ppm test suspension, wheat seedlings.

As for `CCCCOC(=O)c1ccn(Cc2ccc(O/C=C(\OCC)C(F)(F)F)cc2)n1` [compound 356], the “Test A disease control rating” value in assay [1] (setting [3]) turned out to be 100%. Besides, the “Test B disease control rating” value in assay [2] (setting [3]) stood at 0%.
On to `CSc1nccc(Cc2ccc(OCC3(C(F)(F)F)OCCO3)cc2)n1` [compound 281], for which the “Test A disease control rating” value in assay [1] (setting [4]) was found to be 95%. Besides, the “Test B disease control rating” value in assay [2] (setting [4]) was found to be 98%.
In the case of `CN(C)S(=O)(=O)c1ccc(OCC(O)(O)C(F)(F)F)cc1` [compound 34], in assay [1] (setting [5]), the “Test A disease control rating” value was found to be 0%. Besides, the “Test B disease control rating” value in assay [2] (setting [6]) was found to be 80%.
On the same counts, the results for `COC(=O)NN=Cc1ccc(OCC2(C(F)(F)F)OCCO2)cc1` [compound 27] are 0% and 0%.
With `CCOC(=O)c1cnn(Cc2cccc(O/C=C(\OCC)C(F)(F)F)c2C)c1` [compound 303], in assay [1] (setting [4]), the “Test A disease control rating” value is given as 0%. In addition, in assay [2] (setting [4]), the “Test B disease control rating” value worked out at 0%.
Consider `CCO/C(=C\Oc1ccc(Cn2cnc(SC)n2)cc1)C(F)(F)F` [compound 261], for which the “Test A disease control rating” value in assay [1] (setting [3]) is on record as 0%. In addition, the “Test B disease control rating” value in assay [2] (setting [3]) was found to be 0%.
With `CCOC(=O)c1csc(Cc2cccc(O/C=C(\OCC)C(F)(F)F)c2)n1` [compound 370], the “Test A disease control rating” value in assay [1] (setting [3]) came to 0%. The “Test B disease control rating” value in assay [2] (setting [3]) came out at 0%.
Regarding `CCOC(=O)c1cnn(CCc2ccc(OCC3(C(F)(F)F)OCCO3)cc2)c1` [compound 133], the “Test A disease control rating” value in assay [1] (setting [5]) came to 79%. In addition, the “Test B disease control rating” value in assay [2] (setting [6]) came out at 0%.
On the same counts, the results for `CON(Cc1ccc(OCC2(C(F)(F)F)OCCO2)cc1)C(=O)OC(C)(C)C` [compound 238] are 73% and 0%.
`CCOC(=COc1ccc(COC)cc1)C(F)(F)F` [compound 433]: the “Test A disease control rating” value in assay [1] (setting [4]) turned out to be 0%. For the same molecule, in assay [2] (setting [4]), the “Test B disease control rating” value was determined as 0%.
For `CCOC(=O)NCc1ccc(OCC2(C(F)(F)F)OCCO2)cc1` [compound 78], in assay [1] (setting [5]), the “Test A disease control rating” value was 94%. In addition, in assay [2] (setting [6]), the “Test B disease control rating” value is 0%.
On to `COC(C)C(=O)NCc1ccc(OCC2(C(F)(F)F)OCCO2)cc1` (stereo not drawn) [compound 214], for which, in assay [1] (setting [5]), the “Test A disease control rating” value worked out at 0%. In addition, the “Test B disease control rating” value in assay [2] (setting [6]) is reported as 0%.
For `N#CCOC(=O)c1cnn(Cc2ccc(OCC3(C(F)(F)F)OCCO3)cc2)c1` [compound 172], the “Test A disease control rating” value in assay [1] (setting [5]) was 100%. In addition, in assay [2] (setting [6]), the “Test B disease control rating” value is on record as 0%.
For the molecule `CCOC(=COc1ccc(CN2CCC(OC)CC2)cc1)C(F)(F)F` [compound 312], the “Test A disease control rating” value in assay [1] (setting [3]) is listed as 0%. Also, the “Test B disease control rating” value in assay [2] (setting [3]) was 0%.
For `CCO/C(=C\Oc1ccc(Cn2cncn2)cc1)C(F)(F)F` [compound 157], the “Test A disease control rating” value in assay [1] (setting [5]) is recorded as 0%. Besides, the “Test B disease control rating” value in assay [2] (setting [6]) is listed as 9%.
In the case of `Cc1ccc(OCC2(C(F)(F)F)OCCO2)c(F)c1` [compound 442], the pest or weed control at 50 ppm in assay [1] (Phakopsora pachyrhizi, 50 ppm test suspension, 0 = no control) was 0%; in assay [2] (Puccinia recondita, 50 ppm test suspension, 0 = no control), 0%.
On to `CCO/C(=C\Oc1ccc(Cc2nc(C(=O)NCC(F)(F)F)cs2)cc1)C(F)(F)F` [compound 129], for which the “Test A disease control rating” value in assay [1] (setting [5]) was found to be 100%. In addition, the “Test B disease control rating” value in assay [2] (setting [6]) came to 0%.
`O=C(OCC(=O)C1CCCCC1)c1cnn(Cc2ccc(OCC3(C(F)(F)F)OCCO3)cc2)c1` [compound 202]: the “Test A disease control rating” value in assay [1] (setting [5]) was determined as 100%. In addition, in assay [2] (setting [6]), the “Test B disease control rating” value stood at 0%.
Regarding `C#CCOC(=O)c1cnn(Cc2ccc(OCC3(C(F)(F)F)OCCO3)cc2)c1` [compound 15], the “Test A disease control rating” value in assay [1] (setting [5]) is given as 100%. Moreover, the “Test B disease control rating” value in assay [2] (setting [6]) was determined as 0%.
Regarding `N#CCc1ccc(OCC2(C(F)(F)F)OCCO2)cc1` [compound 239], the “Test A disease control rating” value in assay [1] (setting [5]) turned out to be 0%. Moreover, the “Test B disease control rating” value in assay [2] (setting [6]) is 0%.
Consider `CCOC(=O)c1cnn(Cc2ccc(COCC3(C(F)(F)F)OCCO3)cc2)c1` [compound 141], for which the “Test A disease control rating” value in assay [1] (setting [5]) was found to be 0%. For the same molecule, in assay [2] (setting [6]), the “Test B disease control rating” value amounted to 0%.
Turning to `CCOC(=O)c1ccn(Cc2ccc(F)c(O/C=C(\OCC)C(F)(F)F)c2)n1` [compound 420], in assay [1] (setting [3]), the “Test A disease control rating” value is recorded as 0%. Moreover, the “Test B disease control rating” value in assay [2] (setting [3]) came out at 0%.
Turning to `CCOC(=O)c1cnn(CCCc2ccc(OCC(O)(O)C(F)(F)F)cc2)c1` [compound 286], the “Test A disease control rating” value in assay [1] (setting [3]) is 87%. In assay [2] (setting [3]), the “Test B disease control rating” value is listed as 55%.
Turning to `CC#CCOC(=O)c1cnn(Cc2cccc(O/C=C(\OCC)C(F)(F)F)c2)c1` [compound 300], the “Test A disease control rating” value in assay [1] (setting [3]) came to 100%. For the same molecule, the “Test B disease control rating” value in assay [2] (setting [3]) was 0%.
Take `CCOC(=O)c1cnn(Cc2ccc(CCC3(C(F)(F)F)OCCO3)cc2)c1` [compound 67]: the “Test A disease control rating” value in assay [1] (50 ppm test suspension, soybean seedlings) stood at 65%. Further, the “Test B disease control rating” value in assay [2] (50 ppm test suspension, wheat seedlings) was 0%.
In the case of `CCS(=O)(=O)Cc1ccc(OCC2(C(F)(F)F)OCCO2)cc1` [compound 23], the “Test A disease control rating” value in assay [1] (setting [5]) came out at 0%. In addition, the “Test B disease control rating” value in assay [2] (setting [6]) amounted to 19%.
Turning to `CCOC(=O)c1cnn(COc2ccc(O/C=C(\OCC)C(F)(F)F)cc2F)c1` [compound 425], the pest or weed control at 10 ppm worked out at 100% in assay [1] (Phakopsora pachyrhizi, 10 ppm test suspension, 0 = no control) and 0% in assay [2] (Puccinia recondita, 10 ppm test suspension, 0 = no control).
As to `CC(C)COC(=O)NCc1ccc(OCC2(C(F)(F)F)OCCO2)cc1` [compound 112], the “Test A disease control rating” value in assay [1] (setting [5]) came to 0%. Also, the “Test B disease control rating” value in assay [2] (setting [6]) worked out at 0%.
For `CCOC(=O)C1=NOC(Cc2ccc(OCC3(C(F)(F)F)OCCO3)cc2)C1` (stereo not drawn) [compound 289], the “Test A disease control rating” value in assay [1] (setting [3]) is recorded as 0%. Further, the “Test B disease control rating” value in assay [2] (setting [3]) worked out at 0%.
Consider `C#CCO/C(=C\Oc1ccc(Cn2cc(C(=O)OCC)cn2)cc1)C(F)(F)F` [compound 56], for which the “Test A disease control rating” value in assay [1] (setting [5]) came out at 38%. Also, the “Test B disease control rating” value in assay [2] (setting [6]) turned out to be 0%.
In the case of `O=C(OCc1cccnc1)c1cnn(Cc2ccc(OCC3(C(F)(F)F)OCCO3)cc2)c1` [compound 200], the “Test A disease control rating” value in assay [1] (setting [5]) amounted to 100%. The “Test B disease control rating” value in assay [2] (setting [6]) worked out at 0%.
Take `CCO/C(=C\Oc1cccc(Cn2cc(C(=O)OCCCOC)cn2)c1)C(F)(F)F` [compound 351]: in assay [1] (setting [3]), the “Test A disease control rating” value was found to be 100%. Besides, the “Test B disease control rating” value in assay [2] (setting [3]) is given as 0%.
In the case of `CCO/C(=C\Oc1ccc(S(C)(=O)=O)cc1)C(F)(F)F` [compound 60], in assay [1] (setting [5]), the “Test A disease control rating” value is listed as 0%. The “Test B disease control rating” value in assay [2] (setting [6]) turned out to be 0%.
`CCOC(=O)c1cnn(-c2cccc(O/C=C(\OCC)C(F)(F)F)c2)c1` [compound 317]: the “Test A disease control rating” value in assay [1] (setting [4]) is 0%. Moreover, the “Test B disease control rating” value in assay [2] (setting [4]) was determined as 0%.
As to `CCO/C(=C\Oc1ccc(S(=O)(=O)N(C)C)cc1)C(F)(F)F` [compound 61], the “Test A disease control rating” value in assay [1] (setting [5]) turned out to be 0%. In addition, the “Test B disease control rating” value in assay [2] (setting [6]) is 0%.
For `C=C(C)COC(=O)c1cnn(Cc2ccc(OCC(O)(O)C(F)(F)F)cc2)c1` [compound 40], in assay [1] (setting [5]), the “Test A disease control rating” value amounted to 91%. Moreover, the “Test B disease control rating” value in assay [2] (setting [6]) is 68%.
As for `CCCNC(=O)c1ccc(O/C=C(\OCC)C(F)(F)F)cc1` [compound 104], the “Test A disease control rating” value in assay [1] (setting [5]) worked out at 0%. The “Test B disease control rating” value in assay [2] (setting [6]) was 80%.
Consider `CCO/C(=C\Oc1ccc(Cn2ncnc2C(=O)OC)cc1)C(F)(F)F` [compound 122], for which the “Test A disease control rating” value in assay [1] (setting [5]) was found to be 0%. Besides, in assay [2] (setting [6]), the “Test B disease control rating” value is 0%.
Regarding `CCO/C(=C\Oc1ccc(Cn2ccc(C(=O)OC(C)C)n2)cc1)C(F)(F)F` [compound 327], in assay [1] (setting [3]), the “Test A disease control rating” value was determined as 100%. Further, in assay [2] (setting [3]), the “Test B disease control rating” value is 0%.
